SMILES strings stand for the structures.

By Ki is commonly meant a measure of affinity in units of concentration, obtained from inhibition or displacement.

The target in one data set is T1, A1 adenosine receptor (Mesocricetus auratus, UniProt A0A1U8BVR4).
T1 sequence (A0A1U8BVR4 1-326): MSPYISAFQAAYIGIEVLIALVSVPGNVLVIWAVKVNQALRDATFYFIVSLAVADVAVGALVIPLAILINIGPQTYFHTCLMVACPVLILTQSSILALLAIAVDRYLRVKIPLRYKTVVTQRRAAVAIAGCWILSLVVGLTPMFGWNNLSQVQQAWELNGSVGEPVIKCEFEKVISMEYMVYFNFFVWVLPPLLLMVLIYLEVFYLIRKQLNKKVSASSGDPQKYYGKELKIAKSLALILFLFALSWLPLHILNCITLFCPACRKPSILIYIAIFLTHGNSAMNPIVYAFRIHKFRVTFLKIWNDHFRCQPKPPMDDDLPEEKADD
The experiment in a line: Competitive radioligand binding assay, DDT cell membranes. Conditions: membranes of DDT cells; tritiated radioligand 1.5 nM; 23° C. 90 minutes; read-out: A1 BINDING AFFINITY Ki. Details: species or system hamster. The protocol: DDT cells (hamster vas deferens smooth muscle cell line) were grown as monolayers in petri dishes using Dulbecco's Modified Eagle's Medium (DMEM) containing 2.5 μg mL^−1 amphotericin B, 100 U mL^−1 penicillin G, 0.1 mg mL^−1 streptomycin sulfate and 5% fetal bovine serum in a humidified atmosphere of 95% air and 5% CO2. Cells were subcultured twice weekly by dispersion in Hank's Balanced Salt Solution (HBSS) without the divalent cations and containing 1 mM EDTA. The cells were then seeded in growth medium at a density of 1.2×10^5 cells per plate and experiments were performed 4 days later at approximately one day preconfluence.
Attached cells were washed twice with HBSS (2×10 mL), scraped free of the plate with the aid of a rubber policeman in 5 mL of 50 mM Tris-HCl buffer pH 7.4 at 4° C. and the suspension was homogenized for 10 s. The suspension was then centrifuged at 27,000×g for 10 min. The pellet was resuspended in homogenization buffer by vortexing and centrifuged again as described above. The final pellet was resuspended in 1 vol of 50 mM Tris-HCl buffer pH 7.4 containing 5 mM MgCl2 for A1 adenosine receptor assays. For the [^35S]GTPγS binding assay the final pellet was resuspended in 50 mM Tris-HCl pH 7.4 containing 5 mM MgCl2, 100 mM NaCl and 1 mM dithiothreitol. This membrane suspension was then placed in liquid nitrogen for 10 min and stored at −80° C. Aliquots of the membrane suspension were later thawed and used for assays. The protein content was determined with a BradfordTm Assay Kit using bovine serum albumin as standard.
Compounds of Formula I were assayed by use of competitive radioligand binding methods to determine their affinity for the A1 adenosine receptor sites on the membranes of DDT cells. […] The amount of radioactivity retained on the filters was determined by liquid scintillation spectrometry. […]

For data set [1] the following is noted: cited from earlier work.

For `CNC(=O)c1cn(-c2nc(NC3CCCC3)c3ncn([C@@H]4O[C@H](CO)[C@@H](O)[C@H]4O)c3n2)nn1` [III., (1-{9-[(4S,3R,5R)-3,4-dihydroxy-5-(hydroxymethyl)oxolan-2-yl]-6-(cyclopentylamino)purin-2-yl}(1,2,3-triazol-4-yl))-N-methylcarboxamide], at A1 adenosine receptor, the Ki worked out at 2 nM.
Still for that read-out and setting: then `CCOC(=O)c1cn(-c2nc(NC3CCCC3)c3ncn([C@@H]4O[C@H](CO)[C@@H](O)[C@H]4O)c3n2)nn1` [II., ethyl 1-{9-[(4S,3R,5R)-3,4-dihydroxy-5-(hydroxymethyl)oxolan-2-yl]-6-(cyclopentylamino)purin-2-yl}-1,2,3-triazole-4-carboxylate], with 3 nM.
Take `Nc1ncnc2c1ncn2[C@@H]1O[C@H](CO)[C@@H](O)[C@H]1O` [adenosine]: the half-life entry in data set [1] was “less than 10 sec”.
For the compound `NC(=O)c1cn(-c2nc(NC3CCCC3)c3ncn([C@@H]4O[C@H](CO)[C@@H](O)[C@H]4O)c3n2)nn1` [IV., 1-{9-[(4S,3R,5R)-3,4-dihydroxy-5-(hydroxymethyl)oxolan-2-yl]-6-(cyclopentylamino)purin-2-yl}-1,2,3-triazole-4-carboxamide], the Ki on A1 adenosine receptor was 16 nM.

The record behind these values is US7381714B2, “A1 adenosine receptor agonists” (CV Therapeutics, Inc., priority 2005, dated 2008).
